From patent US9771378B2 (Denali Therapeutics, Inc., priority 2014, dated 2017)

Tested on: Aβ42 (human neuroglioma H4 cells expressing human wild type APP751)
Assay: In vitro cell screening assay with sandwich ELISA quantification of Aβ42 peptide
Type: cell-based
Conditions: H4 cells stably expressing human wild type APP751; Pro293 chemically defined medium; compounds 0.003-10 μM; incubated overnight (16-18 h); supernatant Aβ42 by sandwich ELISA; normalized to DMSO and DAPT; read-out: Aβ42 H4 Prot Fre IC50
Procedure, shortened: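 Aβ42 in supernatants was quantified by sandwich ELISA with C-terminal-specific capture and 4G8-HRP detection, absorbance at 450 nm. Stable APP751-expressing human H4 cells received compound at 0.003-10 μM (0.33% DMSO) overnight (16-18 h). IC50 was derived from percent-of-DMSO-control data by nonlinear variable-slope fit.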

Work on `COc1cc(Nc2ncc3c(n2)N(C)C(c2cc(F)c(F)cc2F)CO3)cnc1-n1cnc(C)c1` (single isomer, unassigned; (+)) [Example 181B] yielded an IC50 of 392 nM.

In the case of `COc1cc(Nc2ncc3c(n2)N(C)C(Cc2ccccc2)CO3)ccc1-n1cnc(C)c1` (single isomer, unassigned; (-)) [Example 47B], the IC50 is reported as 65 nM.

Work on `COc1cc(Nc2ncc3c(n2)N(C)C(C)CO3)ccc1-n1cnc(C)c1` (single isomer, unassigned; (+)) [Example 116B] yielded an IC50 of 63 nM.

With `COc1cc(Nc2ncc3c(n2)N(C)[C@H](COc2ccccc2)CO3)ccc1-n1cnc(C)c1` [Example 201] the IC50 was 143 nM.

In the case of `Cc1cc(-c2ccc(Nc3ncc4c(n3)N(C)C(c3cc(F)cc(F)c3)CO4)cc2F)ccn1` (single isomer, unassigned; (+)) [Example 41A], the IC50 is reported as 77 nM.

Work on `Cc1cn(-c2ccc(Nc3ncc4c(n3)N(C)C(c3ccc(F)cc3)CO4)cc2F)cn1` (single isomer, unassigned; (-)) [Example 58B] yielded an IC50 of 1950 nM.

In the case of `Cc1cn(-c2ccc(Nc3ncc4c(n3)N(C)C(c3cc(F)c(F)c(F)c3)CO4)cc2F)cn1` (racemic) [Example 38], the IC50 is reported as 32 nM.

With `Cc1cn(-c2ccc(Nc3ncc4c(n3)N3CCOC[C@H]3CO4)cc2F)cn1` [Example 299] the IC50 was > 3000 nM.

`COc1cc(Nc2ncc3c(n2)N(C)C(c2cc(F)cc(F)c2)CO3)ncc1-n1cnc(C)c1` (single isomer, unassigned; (+)) [Example 220B] showed an IC50 of 44 nM.

`Cc1cn(-c2ccc(Nc3ncc4c(n3)N(C)C(C)(C)CO4)nc2)cn1` [Example 262] was tested, and the IC50 was > 3000 nM.

`Cc1cc(-c2ccc(Nc3ncc4c(n3)N(C)C(c3cc(F)c(F)c(F)c3)CO4)cc2)ccn1` (single isomer, unassigned; (+)) [Example 37A] gave an IC50 of 59 nM.

In the case of `Cc1cc(-c2ccc(Nc3ncc4c(n3)N(C)C(c3ccccc3C)CO4)cc2)ccn1` (racemic) [Example 29], the IC50 is reported as 297 nM.

For `Cc1cn(-c2ccc(Nc3ncc4c(n3)N(C)C3(CC3)CO4)nc2)cn1` [Example 265], the IC50 was > 3000 nM.

Work on `COc1ccc(C2COc3cnc(Nc4ccc(-n5cnc(C)c5)c(OC)c4)nc3N2C)c(C)c1` (racemic) [Example 92] yielded an IC50 of 27 nM.

`CN1c2nc(Nc3ccc(C#N)cc3)ncc2OCC1C(F)(F)F` (single isomer, unassigned; (+)) [Example 226A, (+)-4-((8-methyl-7-(trifluoromethyl)-7,8-dihydro-6H-pyrimido [5,4-b] [1, 4]oxazin-2-yl)amino) benzonitrile] was tested, and the IC50 was > 3000 nM.

Compound `COc1cc(Nc2ncc3c(n2)N(C)C(C2CC(F)(F)C2)CO3)ccc1-n1cnc(C)c1` (single isomer, unassigned; (-)) [Example 212A] has an IC50 of 348 nM.

In the case of `COc1cc(Nc2ncc3c(n2)N(C)C2(CC2)CO3)cnc1-c1cnn(C)c1` [Example 268], the IC50 is reported as 2780 nM.

For `COc1nc(Nc2ncc3c(n2)N(C)C(c2cc(F)c(F)c(F)c2)CO3)ccc1-n1cnc(C)c1` (single isomer, unassigned; (-)) [Example 188A], the IC50 was > 3000 nM.

`Cc1cn(-c2ccc(Nc3ncc4c(n3)N3CCOC[C@@H]3CO4)cc2F)cn1` [Example 300] showed an IC50 of 781 nM.

`COc1cc(Nc2ncc3c(n2)N2CC(F)(F)C[C@H]2CO3)ccc1-n1cnc(C)c1` [Example 297, (S)-8,8-difluoro-N-(3-methoxy-4-(4-methyl-1H-imidazol-1-yl)phenyl)-6a, 7,8,9-tetrahydro-6H-pyrimido [5,4-b] pyrrolo [1,2-d] [1, 4] oxazin-2-amine] was tested, and the IC50 was 99 nM.

`COc1cc(Nc2ncc3c(n2)N(C)[C@@H](CC2CC2)CO3)cnc1-n1cnc(C)c1` [Example 218] showed an IC50 of 39 nM.

With `Cc1cc(-c2ccc(Nc3ncc4c(n3)N(C)C(c3cc(F)c(F)c(F)c3)CO4)cc2F)ccn1` (single isomer, unassigned; (+)) [Example 36A] the IC50 was 107 nM.

Compound `Cc1cn(-c2ccc(Nc3ncc4c(n3)N(C)C(c3cc(F)ccc3C(F)(F)F)CO4)cc2F)cn1` (single isomer, unassigned; (+)) [Example 104B] has an IC50 of 77 nM.

`COc1cc(Nc2ncc3c(n2)N(C)[C@H](c2ccccc2)CO3)ccc1-n1cnc(C)c1` [Example 22A, (R)—N-(3-methoxy-4-(4-methyl-1H-imidazol-1-yl)phenyl)-8-methyl-7-phenyl-7,8-dihydro-6H-pyrimido[5,4-b][1,4]oxazin-2-amine] was tested, and the IC50 was 87 nM.

With `COc1cc(Nc2ncc3c(n2)N(C)C(c2cc(C(F)(F)F)ccc2Cl)CO3)ccc1-n1cnc(C)c1` (single isomer, unassigned; (-)) [Example 88B] the IC50 was 286 nM.

Compound `COc1cc(Nc2ncc3c(n2)N(C)C2(COC2)CO3)ccc1-n1cnc(C)c1` [Example 271] has an IC50 of 364 nM.

In the case of `COc1cc(Nc2ncc3c(n2)N(C)C(c2ccc(F)cc2)CO3)ccc1-n1cnc(C)c1` (single isomer, unassigned; (+)) [Example 49B], the IC50 is reported as 9 nM.

With `COC[C@H]1COc2cnc(Nc3ccc(-n4cnc(C)c4)c(OC)c3)nc2N1C` [Example 111] the IC50 was 120 nM.

In the case of `Cc1cn(-c2ccc(Nc3ncc4c(n3)N(C)C(c3cc(F)c(F)cc3C(F)(F)F)CO4)cc2F)cn1` (single isomer, unassigned) [Example 198A], the IC50 is reported as 1110 nM.

For `COc1cc(Nc2ncc3c(n2)N(C)C(c2cc(F)cc(F)c2)CO3)ccc1-c1ccnc(C)c1` (single isomer, unassigned; (+)) [Example 42A], the IC50 was 36 nM.

In the case of `Cc1cn(-c2ccc(Nc3ncc4c(n3)N(C)C(C)CO4)cc2OC(F)(F)F)cn1` (single isomer, unassigned; (+)) [Example 213B], the IC50 is reported as > 3000 nM.

`COc1cc(Nc2ncc3c(n2)N(C)C(c2cc(F)cc(F)c2)CO3)ccc1C#N` (single isomer, unassigned; (+)) [Example 237B, (+)-4-((7-(3,5-difluorophenyl)-8-methyl-7,8-dihydro-6H-pyrimido [5,4-b] [1, 4]oxazin-2-yl)amino)-2-methoxybenzonitrile] gave an IC50 of 226 nM.

`Cc1cc(-c2ccc(Nc3ncc4c(n3)N(C)C(Cc3ccccc3)CO4)cc2F)ccn1` (single isomer, unassigned; (-)) [Example 57B] was tested, and the IC50 was 880 nM.

In the case of `Cc1cc(-c2ccc(Nc3ncc4c(n3)N(C)C(c3ccccc3)CO4)cc2F)ccn1` (racemic) [Example 27], the IC50 is reported as 374 nM.

In the case of `COc1cc(Nc2ncc3c(n2)N2CCOC[C@H]2CO3)ccc1-n1cnc(C)c1` [Example 295], the IC50 is reported as 496 nM.

Compound `COc1cc(Nc2ncc3c(n2)N(C)C(c2ccccc2Cl)CO3)ccc1-c1ccnc(C)c1` (single isomer, unassigned; (-)) [Example 85A] has an IC50 of 292 nM.

With `COc1cc(Nc2ncc3c(n2)N(C)C(C)(C)CO3)cnc1-c1cnn(C)c1` [Example 270] the IC50 was > 3000 nM.

Work on `COc1cc(Nc2ncc3c(n2)N(C)C(c2ccccc2OC(F)(F)F)CO3)ccc1-c1ccnc(C)c1` (single isomer, unassigned; (-)) [Example 62A] yielded an IC50 of 339 nM.

With `Cc1cn(-c2ccc(Nc3ncc4c(n3)N(C)C(C)CO4)cc2C(F)F)cn1` (single isomer, unassigned; (+)) [Example 214A] the IC50 was > 3000 nM.

In the case of `COc1cc(Nc2ncc3c(n2)N(C)C(c2cc(F)cc(F)c2)CO3)ccc1C#N` (single isomer, unassigned; (-)) [Example 237A, (−)-4-((7-(3,5-difluorophenyl)-8-methyl-7,8-dihydro-6H-pyrimido [5,4-b] [1, 4]oxazin-2-yl)amino)-2-methoxybenzonitrile], the IC50 is reported as > 3000 nM.

In the case of `COc1cc(Nc2ncc3c(n2)N(C)C(CC(F)(F)F)CO3)ccc1-n1cnc(C)c1` (single isomer, unassigned; (-)) [Example 172A], the IC50 is reported as 207 nM.

`Cc1cn(-c2ccc(Nc3ncc4c(n3)N(C)C(c3cc(C(F)(F)F)ccc3Cl)CO4)cc2F)cn1` (single isomer, unassigned; (-)) [Example 173B] showed an IC50 of 831 nM.

In the case of `Cc1cn(-c2ccc(Nc3ncc4c(n3)N(C)C(C3CCOCC3)CO4)cc2F)cn1` (single isomer, unassigned; (-)) [Example 109B], the IC50 is reported as > 3000 nM.

Work on `Cc1cn(-c2ccc(Nc3ncc4c(n3)N(C)C(c3ccc(F)cc3C(F)(F)F)CO4)cc2F)cn1` (single isomer, unassigned; (+)) [Example 99A] yielded an IC50 of 206 nM.

In the case of `COc1cc(Nc2ncc3c(n2)N(C)C(c2cc(F)c(F)c(F)c2)CO3)cnc1-n1cnc(C)c1` (single isomer, unassigned; (-)) [Example 182B], the IC50 is reported as 176 nM.

Compound `COc1cc(Nc2ncc3c(n2)N(C)C(c2cc(F)cc(F)c2)CO3)ccc1-n1cnc(Cl)c1` (single isomer, unassigned; (+)) [Example 204B] has an IC50 of 19 nM.

Work on `COc1cc(Nc2ncc3c(n2)N(C)C(c2cc(F)cc(F)c2)CO3)cnc1-n1cnc(C(F)(F)F)c1` (single isomer, unassigned; (-)) [Example 206B] yielded an IC50 of 704 nM.

Work on `COc1nc(Nc2ncc3c(n2)N(C)C(c2cc(F)c(F)c(F)c2)CO3)ccc1-n1cnc(C)c1` (single isomer, unassigned; (+)) [Example 188B] yielded an IC50 of 275 nM.

`COc1cc(Nc2ncc3c(n2)N(C)[C@@H](C2CC2)CO3)cnc1-n1cnc(C)c1` [Example 225] gave an IC50 of 33 nM.

With `Cc1cc(-c2ccc(Nc3ncc4c(n3)N(C)C(c3ccc(F)cc3F)CO4)cc2F)ccn1` (single isomer, unassigned; (-)) [Example 66B] the IC50 was 1100 nM.

In the case of `Cc1cn(-c2ccc(Nc3ncc4c(n3)N(C)C(c3cc(F)c(F)cc3Cl)CO4)cc2F)cn1` (single isomer, unassigned; (+)) [Example 169A], the IC50 is reported as 45 nM.

Compound `Cc1cn(-c2ccc(Nc3ncc4c(n3)N(C)C(c3cc(F)c(F)c(F)c3)CO4)cc2)cn1` (single isomer, unassigned; (+)) [Example 115B] has an IC50 of 22 nM.

`Cc1cn(-c2ccc(Nc3ncc4c(n3)N(C)C(c3cc(F)cc(F)c3)CO4)cc2F)cn1` (single isomer, unassigned; (+)) [Example 33A] showed an IC50 of 14 nM.

Compound `Cc1cn(-c2ccc(Nc3ncc4c(n3)N(C)C(c3ccccc3)CO4)cc2F)cn1` (single isomer, unassigned; (-)) [Example 25B] has an IC50 of 334 nM.
